# Measured values as given in PMC6792352, “Limited Chemical Structural Diversity Found to Modulate Thyroid Hormone Receptor in the Tox21 Chemical Library” (Environmental Health Perspectives, 2019).
# Counter-ions that a name gives are not always drawn. Like-named read-outs stand apart in the source and are kept apart here.
# How the values were obtained:
# [1] = in vitro; settings: rat, gh3-tre-luc cells, AC50 (uM) modified / 1000
# [2] = test system: GH3-TRE-Luc cell line; settings: read-out: AC50 (uM) modified / 1000, viability, 1 nM T3 present, 24 h
smiles,measurement,setting,value
O=S(=O)(O)c1ccc(N=Nc2c(O)ccc3cc(S(=O)(=O)O)ccc23)cc1 [FD&C Yellow 6],CC50 at 24 h,[1],38.5 µM
same,CC50,[2]; Tox21_110001=Tox21_300407,65.1 µM
CCCCCCCC[N+](C)(C)CCCCCCCC [Dioctyldimethylammonium chloride],CC50 at 24 h,[1],19.4 µM
same,CC50,[2]; Tox21_110001=Tox21_113024,20.1 µM
O=C(Nc1ccc(Cl)cc1)Nc1ccc(Cl)c(Cl)c1 [Triclocarban],CC50 at 24 h,[1],6.61 µM
same,CC50,[2]; Tox21_110001=Tox21_112078,3.75 µM
same,CC50,[2]; Tox21_110001=Tox21_300481,3.32 µM
Oc1ccc2cc(SSc3ccc4cc(O)ccc4c3)ccc2c1 [6-Hydroxy-2-naphthyl disulfide],CC50 at 24 h,[1],> 90 µM
same,CC50,[2]; Tox21_110001=Tox21_303354,81.2 µM
Oc1c(I)cc(Cl)c2cccnc12 [Clioquinol],CC50 at 24 h,[1],43.1 µM
same,CC50,[2]; Tox21_110001=Tox21_110416,43.7 µM
Cc1c(C(=O)O)c(O)cc2c1C(=O)c1c(O)c([C@@H]3O[C@H](CO)[C@@H](O)[C@H](O)[C@H]3O)c(O)c(O)c1C2=O [Carminic acid],CC50 at 24 h,[1],55.9 µM
same,CC50,[2]; Tox21_110001=Tox21_300294,56.2 µM
O=C1OC2(c3ccccc31)c1cc(I)c(O)c(I)c1Oc1c2cc(I)c(O)c1I [Erythrosin B],CC50 at 24 h,[1],16.4 µM
same,CC50,[2]; Tox21_110001=Tox21_301634,19.8 µM
CN(C)CCOc1ccc(/C(=C(/CCCl)c2ccccc2)c2ccccc2)cc1 [Toremifene citrate],CC50 at 24 h,[1],8.87 µM
same,CC50,[2]; Tox21_110001=Tox21_111877,11.4 µM
C(=NC1CCCCC1)=NC1CCCCC1 [Dicyclohexylcarbodiimide],CC50 at 24 h,[1],> 90 µM
same,CC50,[2]; Tox21_110001=Tox21_303237,49.8 µM
CC(C)=CC1C(C(=O)OCc2coc(Cc3ccccc3)c2)C1(C)C (centres unmarked) [Resmethrin],CC50 at 24 h,[1],> 90 µM
same,CC50,[2]; Tox21_110001=Tox21_300920,55.3 µM
"CCC(C)(C)c1ccc(O)c(C(C)(C)CC)c1 [2,4-Di-tert-pentylphenol]",CC50 at 24 h,[1],10.5 µM
same,CC50,[2]; Tox21_110001=Tox21_300090,12.2 µM
C=C1CC[C@H](O)C/C1=C/C=C1\CCC[C@]2(C)[C@@H]([C@H](C)/C=C/[C@H](C)C(C)C)CC[C@@H]12 [Ergocalciferol],CC50 at 24 h,[1],42.5 µM
same,CC50,[2]; Tox21_110001=Tox21_302752,77.9 µM
Nc1cc([N+](=O)[O-])ccc1O [2-Amino-4-nitrophenol],CC50 at 24 h,[1],62.3 µM
same,CC50,[2]; Tox21_110001=Tox21_302788,48.2 µM
C[C@H](CCC(=O)O)[C@H]1CC[C@H]2[C@@H]3CC[C@@H]4C[C@H](O)CC[C@]4(C)[C@H]3CC[C@]12C [Lithocholic acid],CC50 at 24 h,[1],24.5 µM
same,CC50,[2]; Tox21_110001=Tox21_302791,47.9 µM
COC1=CC(=O)C[C@@H](C)[C@]12Oc1c(Cl)c(OC)cc(OC)c1C2=O [Griseofulvin],CC50 at 24 h,[1],> 90 µM
same,CC50,[2]; Tox21_110001=Tox21_303005,49.1 µM
O=C1c2ccccc2C(=O)N1SC1CCCCC1 [N-(Cyclohexylthio)phthalimide],CC50 at 24 h,[1],37 µM
same,CC50,[2]; Tox21_110001=Tox21_303596,23.2 µM
Cc1ccc(C(C)(C)C)c(O)c1 [2-tert-Butyl-5-methylphenol],CC50 at 24 h,[1],81 µM
same,CC50,[2]; Tox21_110001=Tox21_300486,47.9 µM
"O=C(Nc1ccccc1SSc1ccccc1NC(=O)c1ccccc1)c1ccccc1 [2,2'-Dibenzoylaminodiphenyl disulfide]",CC50 at 24 h,[1],89.8 µM
same,CC50,[2]; Tox21_110001=Tox21_303466,72.6 µM
OC(c1ccc(Cl)cc1)(c1cncnc1)c1ccccc1Cl (centres unmarked) [Fenarimol],CC50 at 24 h,[1],> 90 µM
same,CC50,[2]; Tox21_110001=Tox21_300650,82.8 µM
CC(C)N(C(=O)SCC(Cl)=C(Cl)Cl)C(C)C [Tri-allate],CC50 at 24 h,[1],55.9 µM
same,CC50,[2]; Tox21_110001=Tox21_300671,53.5 µM
"Clc1ccc(C(c2ccccc2Cl)C(Cl)(Cl)Cl)cc1 (centres unmarked) [o,p'-DDT]",CC50 at 24 h,[1],34 µM
same,CC50,[2]; Tox21_110001=Tox21_300622,39.9 µM
Cc1cc(N=Nc2ccccc2C)ccc1N [2-Amino-5-azotoluene],CC50 at 24 h,[1],50.9 µM
same,CC50,[2]; Tox21_110001=Tox21_300300,40.4 µM
"O=Cc1ccccc1C=O [1,2-Benzenedicarboxaldehyde]",CC50 at 24 h,[1],4.89 µM
same,CC50,[2]; Tox21_110001=Tox21_112347,8.06 µM
Cc1[nH]cnc1C[C@H]1CCc2c(C)c3ccccc3n2C1=O [Fabesetron],CC50 at 24 h,[1],33.3 µM
same,CC50,[2]; Tox21_110001=Tox21_113200,23.5 µM
CN(C)c1ccc(C(=N)c2ccc(N(C)C)cc2)cc1 [Auramine hydrochloride],CC50 at 24 h,[1],63.2 µM
same,CC50,[2]; Tox21_110001=Tox21_303002,57.6 µM
CCCCCCCCOC(=O)c1ccc(O)cc1 [Octylparaben],CC50 at 24 h,[1],60.4 µM
same,CC50,[2]; Tox21_110001=Tox21_303430,46 µM
CN1[C@@H]2CC[C@H]1C[C@@H](OC(c1ccccc1)c1ccccc1)C2 [Benztropine],CC50 at 24 h,[1],24.5 µM
same,CC50,[2]; Tox21_110001=Tox21_111695,13.8 µM
CC(=O)[C@]1(O)Cc2c(O)c3c(c(O)c2[C@@H](O[C@H]2C[C@H](N)[C@H](O)[C@H](C)O2)C1)C(=O)c1c(O)cccc1C3=O [Carminomycin],CC50 at 24 h,[1],0.177 µM
same,CC50,[2]; Tox21_110001=Tox21_111978,0.212 µM
"Clc1ccc(C(c2ccc(Cl)cc2)C(Cl)Cl)cc1 [p,p'-DDD]",CC50 at 24 h,[1],27.9 µM
same,CC50,[2]; Tox21_110001=Tox21_300191,35.5 µM
"Nc1ccc([N+](=O)[O-])cc1N [4-Nitro-1,2-phenylenediamine]",CC50 at 24 h,[1],21.8 µM
same,CC50,[2]; Tox21_110001=Tox21_302811,26.4 µM
"C=CC(=O)OCCCCCCOC(=O)C=C [1,6-Hexanediol diacrylate]",CC50 at 24 h,[1],57.6 µM
same,CC50,[2]; Tox21_110001=Tox21_303168,46.1 µM
CC1=C(/C=C/C(C)=C/C=C/C(C)=C/CO)C(C)(C)CCC1 [Retinol],CC50 at 24 h,[1],63.5 µM
same,CC50,[2]; Tox21_110001=Tox21_300287,85.7 µM
O=[N+]([O-])C(Br)(CO)CO [Bronopol],CC50 at 24 h,[1],22 µM
same,CC50,[2]; Tox21_110001=Tox21_112079,21.8 µM
"CC(C)(C)c1cc(C(C)(C)C)c(O)c(C(C)(C)C)c1 [2,4,6-Tris(tert-butyl)phenol]",CC50 at 24 h,[1],27.4 µM
same,CC50,[2]; Tox21_110001=Tox21_300121,28.2 µM
N#C/C(=C1/SC[C@@H](c2ccc(Cl)cc2Cl)S1)n1ccnc1 [Luliconazole],CC50 at 24 h,[1],> 50 µM
same,CC50,[2]; Tox21_110001=Tox21_112974,40.6 µM
"CC(C)(C)c1ccc(O)c(C(C)(C)C)c1 [2,4-Di-tert-butylphenol]",CC50 at 24 h,[1],47.6 µM
same,CC50,[2]; Tox21_110001=Tox21_300114,29.7 µM
O=C(c1cc(O)c(O)c(O)c1)c1ccc(O)c(O)c1O [Exifone],CC50 at 24 h,[1],43.6 µM
same,CC50,[2]; Tox21_110001=Tox21_303559,62.8 µM
Oc1ccc(Cl)cc1Cc1cc(Cl)ccc1O [Dichlorophen],CC50 at 24 h,[1],16.7 µM
same,CC50,[2]; Tox21_110001=Tox21_111112,15.4 µM
same,CC50,[2]; Tox21_110001=Tox21_303013,27.4 µM
"Oc1c(Cl)cc(Cl)c(Cl)c1Cl [2,3,4,6-Tetrachlorophenol]",CC50 at 24 h,[1],71.8 µM
same,CC50,[2]; Tox21_110001=Tox21_302932,64.3 µM
